Literature values, collected in US9012467B2, “Compositions for intratumoral administration” (Covidien LP, priority 2009, dated 2015).

Tested on: mice
Settings: acute toxicity

COC(=O)C1=CO[C@@H](O)[C@@H]2C(CO)=CC[C@H]12 [Genipin, genipin]
LD50 i.v.: 382 mg/k
